{"source": "patent US12616696B2", "about": "“Crystalline forms of (p)-3-chloro-4-((3,5-difluoropyridin-2-yl)methoxy)-2′-(2-(2-hydroxypropan-2-yl)pyrimidin-4-yl)-5′,6-dimethyl-2h-[1,4′-bipyridin]-2-one” (ACLARIS THERAPEUTICS, INC., priority 2020, dated 2026)", "key": {"phospho-JNK": {"system": "phospho-JNK", "assay": "Phosphoprotein analysis in PMA-differentiated U937 cells: phospho-JNK/total JNK", "assay_type": "cell-based", "conditions": "Homo sapiens, U-937, read-out: pJNK/Total JNK EC50", "experimental": "(§1) The JNK pathway leads to increased inflammation by boosting production of inflammatory cytokines. […] Classical p38 inhibitors block the phosphorylation of downstream substrates of p38 while elevating activity of parallel pathways such as JNK. Evaluation of the impact of different classes of p38 inhibitors on p38 and JNK pathway regulation was carried out using phospho-HSP27 and phosphor-JNK for the two pathways, respectively. Evaluation of the potency and efficacy of p38 inhibitors to impact phosphoprotein levels was carried out using the human U937 cell line. The U937 human pre-monocytic cell line was obtained from the American Type Culture Collection (Rockville, MD). These cells were differentiated to a monocytic/macrophage phenotype as described by Burnette (Burnette et al, (2009). SD0006: a potent, selective and orally available inhibitor of p38 MAP Kinase, Pharmacology 84(1):42-60). Suspension cells (approximately 0.5 million per milliliter in T75 cm^2 tissue culture flasks) were grown in RPMI containing 10% fetal bovine serum (FBS) plus antibiotics. On day one, phorbol 12-myristate 13-acetate (PMA, 20 ng/mL) was added to the culture flask and the cells were incubated overnight at 37° C./5% CO2. The cells were washed on day two by centrifuging and resuspending them in fresh media without PMA. […]"}, "phospho-HSP27": {"system": "phospho-HSP27", "assay": "Phosphoprotein analysis in PMA-differentiated U937 cells: phospho-Hsp27/total Hsp27", "assay_type": "cell-based", "conditions": "Homo sapiens, U-937, read-out: pHSP27/Total HSP27 IC50", "experimental": "as §1"}, "physchem": {"assay": "physchem", "conditions": "thermodynamic from solid; for solubility: 23 °C; for solubility at 1 h: 40 °C, Solubility at 40° C."}, "in vitro": {"assay": "in vitro", "conditions": "50 mg, Tmax (time interval where BAmax is recorded)", "experimental": "Test System: The study was performed in the TNO dynamic, multi-compartmental in vitro system of the stomach and small intestine (tiny-TIM). The tiny-TIM system consists of a gastric compartment and one small intestinal compartment (FIG. 8). This compartment is composed of two glass units with a flexible silicone inner wall enclosing the luminal material. The space between the inner and outer walls is filled with water. Peristaltic mixing of the chyme is the result of alternate compression and relaxation of the flexible inner wall. The compartments are connected by peristaltic valve pumps that successively open and close, allowing the chyme to transit over time through the compartments. […] The set-points for gastrointestinal simulation are controlled and monitored by specific computer programs. […]\nFiltration of released and dissolved/solubilized drug molecules from the intestinal lumen via a semi-permeable membrane unit (Fresenius plasmaFlux® P1dry) allowed the assessment of the so-called bio-accessible fraction, i.e. the fraction of the drug which is available for small intestinal absorption. […] The collected volume per time period was measured and sub-samples were taken, instantly diluted in 50% Acetonitrile in Milli-q water and stored at 2-10° C., protected from light, until analysis."}}, "data": [{"smiles": "Cc1cnc(-c2ccnc(C(C)(C)O)n2)cc1-n1c(C)cc(OCc2ncc(F)cc2F)c(Cl)c1=O", "note": "(atropisomer, axis not shown; (P)) [Compound 49a, (P)-3-chloro-4-((3,5-difluoropyridin-2-yl)methoxy)-2′-(2-(2-hydroxypropan-2-yl)pyrimidin-4-yl)-5′,6-dimethyl-2H-[1,4′-bipyridin]-2-one]", "values": [{"measurement": "EC50", "setting": "phospho-JNK", "value": 117, "unit": "nM"}, {"measurement": "IC50", "setting": "phospho-HSP27", "value": 1.15, "unit": "nM"}, {"measurement": "solubility", "setting": "physchem; organic solvent or mixture, low solubility at RT", "value": "< 10000", "unit": "µg/mL"}, {"measurement": "solubility", "setting": "physchem; water, Solubility at RT", "value": "< 6000", "unit": "µg/mL"}, {"measurement": "solubility at 1 h", "setting": "physchem; organic solvent or mixture", "value": "> 9000", "unit": "µg/mL"}, {"measurement": "solubility at 1 h", "setting": "physchem; water", "value": "< 6000", "unit": "µg/mL"}, {"measurement": "Tmax", "setting": "in vitro", "value": "1 to 1.5", "unit": "h"}]}]}
